Assay results: ChEMBL document CHEMBL3871297, “Squarate-based carbocyclic nucleosides: Syntheses, computational analyses and anticancer/antiviral evaluation” (2017)

Assay: Cytotoxicity against human SW620 cells assessed as cell growth at 10 uM after 2 days by SRB assay relative to control
Type: functional
Conditions: SW-620, 48 h, read-out: Activity

| Structure (SMILES) | growth at 10 µM [%] |
| --- | --- |
| Nc1c(N[C@H]2C=C[C@@H](CO)C2)c(=O)c1=O | 105 |

Assay: Cytotoxicity against human OVCAR4 cells assessed as cell growth at 10 uM after 2 days by SRB assay relative to control
Type: functional
Conditions: OVCAR-4, 48 h, read-out: Activity

| Structure (SMILES) | growth at 10 µM [%] |
| --- | --- |
| Nc1c(N[C@H]2C=C[C@@H](CO)C2)c(=O)c1=O | 111 |

Assay: Cytotoxicity against human HCC2998 cells assessed as cell growth at 10 uM after 2 days by SRB assay relative to control
Type: functional
Conditions: HCC 2998, 48 h, read-out: Activity

| Structure (SMILES) | growth at 10 µM [%] |
| --- | --- |
| Nc1c(N[C@H]2C=C[C@@H](CO)C2)c(=O)c1=O | 107 |

Assay: Cytotoxicity against human HL-60(TB) cells assessed as cell growth at 10 uM after 2 days by SRB assay relative to control
Type: functional
Conditions: HL-60, 48 h, read-out: Activity

| Structure (SMILES) | growth at 10 µM [%] |
| --- | --- |
| Nc1c(N[C@H]2C=C[C@@H](CO)C2)c(=O)c1=O | 96.7 |

Assay: Cytotoxicity against human M14 cells assessed as cell growth at 10 uM after 2 days by SRB assay relative to control
Type: functional
Conditions: M14, 48 h, read-out: Activity

| Structure (SMILES) | growth at 10 µM [%] |
| --- | --- |
| Nc1c(N[C@H]2C=C[C@@H](CO)C2)c(=O)c1=O | 101 |

Assay: Cytotoxicity against human Hs 578T cells assessed as cell growth at 10 uM after 2 days by SRB assay relative to control
Type: functional
Conditions: 48 h, read-out: Activity

| Structure (SMILES) | growth at 10 µM [%] |
| --- | --- |
| Nc1c(N[C@H]2C=C[C@@H](CO)C2)c(=O)c1=O | 129 |

Assay: Cytotoxicity against human SNB19 cells assessed as cell growth at 10 uM after 2 days by SRB assay relative to control
Type: functional
Conditions: SNB-19, 48 h, read-out: Activity

| Structure (SMILES) | growth at 10 µM [%] |
| --- | --- |
| Nc1c(N[C@H]2C=C[C@@H](CO)C2)c(=O)c1=O | 110 |

Assay: Cytotoxicity against human K562 cells assessed as cell growth at 10 uM after 2 days by SRB assay relative to control
Type: functional
Conditions: K562, 48 h, read-out: Activity

| Structure (SMILES) | growth at 10 µM [%] |
| --- | --- |
| Nc1c(N[C@H]2C=C[C@@H](CO)C2)c(=O)c1=O | 99.6 |

Assay: Cytotoxicity against human SF268 cells assessed as cell growth at 10 uM after 2 days by SRB assay relative to control
Type: functional
Conditions: SF-268, 48 h, read-out: Activity

| Structure (SMILES) | growth at 10 µM [%] |
| --- | --- |
| Nc1c(N[C@H]2C=C[C@@H](CO)C2)c(=O)c1=O | 165 |

Assay: Cytotoxicity against human HCT15 cells assessed as cell growth at 10 uM after 2 days by SRB assay relative to control
Type: functional
Conditions: HCT-15, 48 h, read-out: Activity

| Structure (SMILES) | growth at 10 µM [%] |
| --- | --- |
| Nc1c(N[C@H]2C=C[C@@H](CO)C2)c(=O)c1=O | 103 |

Assay: Cytotoxicity against human UACC62 cells assessed as cell growth at 10 uM after 2 days by SRB assay relative to control
Type: functional
Conditions: UACC-62, 48 h, read-out: Activity

| Structure (SMILES) | growth at 10 µM [%] |
| --- | --- |
| Nc1c(N[C@H]2C=C[C@@H](CO)C2)c(=O)c1=O | 98.3 |

Assay: Cytotoxicity against human SNB75 cells assessed as cell growth at 10 uM after 2 days by SRB assay relative to control
Type: functional
Conditions: SNB-75, 48 h, read-out: Activity

| Structure (SMILES) | growth at 10 µM [%] |
| --- | --- |
| Nc1c(N[C@H]2C=C[C@@H](CO)C2)c(=O)c1=O | 111 |

Assay: Cytotoxicity against human OVCAR5 cells assessed as cell growth at 10 uM after 2 days by SRB assay relative to control
Type: functional
Conditions: OVCAR-5, 48 h, read-out: Activity

| Structure (SMILES) | growth at 10 µM [%] |
| --- | --- |
| Nc1c(N[C@H]2C=C[C@@H](CO)C2)c(=O)c1=O | 106 |

Assay: Cytotoxicity against human CCRF-CEM cells assessed as cell growth at 10 uM after 2 days by SRB assay relative to control
Type: functional
Conditions: 48 h, read-out: Activity

| Structure (SMILES) | growth at 10 µM [%] |
| --- | --- |
| Nc1c(N[C@H]2C=C[C@@H](CO)C2)c(=O)c1=O | 89.3 |

Assay: Cytotoxicity against human OVCAR8 cells assessed as cell growth at 10 uM after 2 days by SRB assay relative to control
Type: functional
Conditions: OVCAR-8, 48 h, read-out: Activity

| Structure (SMILES) | growth at 10 µM [%] |
| --- | --- |
| Nc1c(N[C@H]2C=C[C@@H](CO)C2)c(=O)c1=O | 92.8 |

Assay: Cytotoxicity against human IGROV1 cells assessed as cell growth at 10 uM after 2 days by SRB assay relative to control
Type: functional
Conditions: IGROV-1, 48 h, read-out: Activity

| Structure (SMILES) | growth at 10 µM [%] |
| --- | --- |
| Nc1c(N[C@H]2C=C[C@@H](CO)C2)c(=O)c1=O | 96.2 |

Assay: Cytotoxicity against human MDA-MB-435 cells assessed as cell growth at 10 uM after 2 days by SRB assay relative to control
Type: functional
Conditions: MDA-MB-435, 48 h, read-out: Activity

| Structure (SMILES) | growth at 10 µM [%] |
| --- | --- |
| Nc1c(N[C@H]2C=C[C@@H](CO)C2)c(=O)c1=O | 114 |

Assay: Cytotoxicity against human U251 cells assessed as cell growth at 10 uM after 2 days by SRB assay relative to control
Type: functional
Conditions: U-251, 48 h, read-out: Activity

| Structure (SMILES) | growth at 10 µM [%] |
| --- | --- |
| Nc1c(N[C@H]2C=C[C@@H](CO)C2)c(=O)c1=O | 103 |

Assay: Cytotoxicity against human EKVX cells assessed as cell growth at 10 uM after 2 days by SRB assay relative to control
Type: functional
Conditions: 48 h, read-out: Activity

| Structure (SMILES) | growth at 10 µM [%] |
| --- | --- |
| Nc1c(N[C@H]2C=C[C@@H](CO)C2)c(=O)c1=O | 121 |

Assay: Cytotoxicity against human HCT116 cells assessed as cell growth at 10 uM after 2 days by SRB assay relative to control
Type: functional
Conditions: HCT-116, 48 h, read-out: Activity

| Structure (SMILES) | growth at 10 µM [%] |
| --- | --- |
| Nc1c(N[C@H]2C=C[C@@H](CO)C2)c(=O)c1=O | 108 |

Assay: Cytotoxicity against human SN12C cells assessed as cell growth at 10 uM after 2 days by SRB assay relative to control
Type: functional
Conditions: 48 h, read-out: Activity

| Structure (SMILES) | growth at 10 µM [%] |
| --- | --- |
| Nc1c(N[C@H]2C=C[C@@H](CO)C2)c(=O)c1=O | 105 |

Assay: Cytotoxicity against human HOP92 cells assessed as cell growth at 10 uM after 2 days by SRB assay relative to control
Type: functional
Conditions: HOP-92, 48 h, read-out: Activity

| Structure (SMILES) | growth at 10 µM [%] |
| --- | --- |
| Nc1c(N[C@H]2C=C[C@@H](CO)C2)c(=O)c1=O | 104 |

Assay: Cytotoxicity against human SKOV3 cells assessed as cell growth at 10 uM after 2 days by SRB assay relative to control
Type: functional
Conditions: SK-OV-3, 48 h, read-out: Activity

| Structure (SMILES) | growth at 10 µM [%] |
| --- | --- |
| Nc1c(N[C@H]2C=C[C@@H](CO)C2)c(=O)c1=O | 112 |

Assay: Cytotoxicity against human MDA-MB-231 cells assessed as cell growth at 10 uM after 2 days by SRB assay relative to control
Type: functional
Conditions: MDA-MB-231, 48 h, read-out: Activity

| Structure (SMILES) | growth at 10 µM [%] |
| --- | --- |
| Nc1c(N[C@H]2C=C[C@@H](CO)C2)c(=O)c1=O | 113 |

Assay: Cytotoxicity against human NCI-H23 cells assessed as cell growth at 10 uM after 2 days by SRB assay relative to control
Type: functional
Conditions: NCI-H23, 48 h, read-out: Activity

| Structure (SMILES) | growth at 10 µM [%] |
| --- | --- |
| Nc1c(N[C@H]2C=C[C@@H](CO)C2)c(=O)c1=O | 111 |

Assay: Cytotoxicity against human NCI-H460 cells assessed as cell growth at 10 uM after 2 days by SRB assay relative to control
Type: functional
Conditions: NCI-H460, 48 h, read-out: Activity

| Structure (SMILES) | growth at 10 µM [%] |
| --- | --- |
| Nc1c(N[C@H]2C=C[C@@H](CO)C2)c(=O)c1=O | 104 |

Assay: Cytotoxicity against human HOP62 cells assessed as cell growth at 10 uM after 2 days by SRB assay relative to control
Type: functional
Conditions: HOP-62, 48 h, read-out: Activity

| Structure (SMILES) | growth at 10 µM [%] |
| --- | --- |
| Nc1c(N[C@H]2C=C[C@@H](CO)C2)c(=O)c1=O | 96.4 |

Assay: Cytotoxicity against human UACC257 cells assessed as cell growth at 10 uM after 2 days by SRB assay relative to control
Type: functional
Conditions: UACC-257, 48 h, read-out: Activity

| Structure (SMILES) | growth at 10 µM [%] |
| --- | --- |
| Nc1c(N[C@H]2C=C[C@@H](CO)C2)c(=O)c1=O | 97.7 |

Assay: Cytotoxicity against human ACHN cells assessed as cell growth at 10 uM after 2 days by SRB assay relative to control
Type: functional
Conditions: 48 h, read-out: Activity

| Structure (SMILES) | growth at 10 µM [%] |
| --- | --- |
| Nc1c(N[C@H]2C=C[C@@H](CO)C2)c(=O)c1=O | 103 |

Assay: Cytotoxicity against human NCI-H322M cells assessed as cell growth at 10 uM after 2 days by SRB assay relative to control
Type: functional
Conditions: 48 h, read-out: Activity

| Structure (SMILES) | growth at 10 µM [%] |
| --- | --- |
| Nc1c(N[C@H]2C=C[C@@H](CO)C2)c(=O)c1=O | 106 |

Assay: Cytotoxicity against human NCI-H522 cells assessed as cell growth at 10 uM after 2 days by SRB assay relative to control
Type: functional
Conditions: NCI-H522, 48 h, read-out: Activity

| Structure (SMILES) | growth at 10 µM [%] |
| --- | --- |
| Nc1c(N[C@H]2C=C[C@@H](CO)C2)c(=O)c1=O | 90.1 |

Assay: Cytotoxicity against human T47D cells assessed as cell growth at 10 uM after 2 days by SRB assay relative to control
Type: functional
Conditions: 48 h, read-out: Activity

| Structure (SMILES) | growth at 10 µM [%] |
| --- | --- |
| Nc1c(N[C@H]2C=C[C@@H](CO)C2)c(=O)c1=O | 105 |

Assay: Cytotoxicity against human MCF7 cells assessed as cell growth at 10 uM after 2 days by SRB assay relative to control
Type: functional
Conditions: MCF7, 48 h, read-out: Activity

| Structure (SMILES) | growth at 10 µM [%] |
| --- | --- |
| Nc1c(N[C@H]2C=C[C@@H](CO)C2)c(=O)c1=O | 101 |

Assay: Cytotoxicity against human 786-0 cells assessed as cell growth at 10 uM after 2 days by SRB assay relative to control
Type: functional
Conditions: 786-0, 48 h, read-out: Activity

| Structure (SMILES) | growth at 10 µM [%] |
| --- | --- |
| Nc1c(N[C@H]2C=C[C@@H](CO)C2)c(=O)c1=O | 106 |

Assay: Cytotoxicity against human COLO205 cells assessed as cell growth at 10 uM after 2 days by SRB assay relative to control
Type: functional
Conditions: COLO 205, 48 h, read-out: Activity

| Structure (SMILES) | growth at 10 µM [%] |
| --- | --- |
| Nc1c(N[C@H]2C=C[C@@H](CO)C2)c(=O)c1=O | 121 |

Assay: Cytotoxicity against human NCI-H226 cells assessed as cell growth at 10 uM after 2 days by SRB assay relative to control
Type: functional
Conditions: NCI-H226, 48 h, read-out: Activity

| Structure (SMILES) | growth at 10 µM [%] |
| --- | --- |
| Nc1c(N[C@H]2C=C[C@@H](CO)C2)c(=O)c1=O | 107 |

Assay: Cytotoxicity against human HT-29 cells assessed as cell growth at 10 uM after 2 days by SRB assay relative to control
Type: functional
Conditions: HT-29, 48 h, read-out: Activity

| Structure (SMILES) | growth at 10 µM [%] |
| --- | --- |
| Nc1c(N[C@H]2C=C[C@@H](CO)C2)c(=O)c1=O | 110 |

Assay: Cytotoxicity against human NCI/ADR-RES cells assessed as cell growth at 10 uM after 2 days by SRB assay relative to control
Type: functional
Conditions: 48 h, read-out: Activity

| Structure (SMILES) | growth at 10 µM [%] |
| --- | --- |
| Nc1c(N[C@H]2C=C[C@@H](CO)C2)c(=O)c1=O | 108 |
